# How the values were obtained:
# [1] = test system: lung Col1a1 expression; test: Precision cut lung slices, mice under chronic bleomycin exposure (Example B9); assay type: cell-based; details: 7 days culture, normalized to DMSO, FIG. 5B
# Method: (§1) Mice (C57BL/6) were administered 3 U/kg of bleomycin (Teva Pharmaceuticals; North Wales, Pa.) on Day 0 and 1 U/kg of bleomycin on days 14, 28, 42 and 56 via oropharyngeal aspiration while under anesthesia. At day 70, 14 days after the final bleomycin insult, precision cut lung slices were obtained. Following euthanization, 2% low gelling temp agarose was injected into the mouse lungs via the trachea. […] The lobes were then subjected to precision slicing to obtain samples for culture using a microtome (Compresstome VF-300-0Z, Precisionary; Greenville, N.C.). Individual slices were distributed in a multiwell culture plate and cultured for 7 days under control (DMSO) and test compound conditions. The viability of the slices over the course of culturing was confirmed by WST-1 assay of mitochondrial activity.
# During the culture period, slices in the control group were treated with DMSO and slices in the test group were treated with a DMSO solution of one of: the selective antibody αvβ6 inhibitor 3G9; the αvβ1-selective small molecule inhibitor; a combination of the selective antibody αvβ6 inhibitor 3G9 and the αvβ1-selective small molecule inhibitor; compound 5; and the small molecule ALK5 inhibitor. The selective αvβ1 and αvβ6 integrin inhibitors were analyzed at ≥their respective IC90 concentrations for inhibition of TGF-beta activation. […]
# [2] = test system: COL1A1 expression; test: Precision cut lung slices from human IPF explants, COL1A1 expression (Example B11); assay type: cell-based; details: for expression of COL1A1 (treatment alone): PCLS from 5-7 IPF lung samples, seven days, nintedanib 75 nM, pirfenidone 50 μm
# Excerpt: Explanted lung tissue was obtained from human IPF subjects and inflated with agarose as described in the preceding examples. Biopsy cores were obtained from the agarose-inflated lung tissue. The biopsy cores were subjected to precision slicing to obtain several hundred μm thick. Individual slices were distributed in a multiwell culture plate and cultured for […] under control (DMSO) and test compound conditions. The viability of the slices over the course of culturing was confirmed by WST-1 assay of mitochondrial activity.
# PCLS from 5-7 idopathic pulmonary fibrosis (IPF) lung tissue samples were cultured for seven days with one of: DMSO; Compound 5 at 200 nM; nintedanib at 75 nM; pirfenidone at 50 μm; a combination of Compound 5 at 200 nM and nintedanib at 75 nM; a combination of Compound 5 at 200 nM and pirfenidone at […]; or an Alk5 inhibitor at 1 μm. […] FIG. 6D is a bar graph showing relative expression of COL1A1 in precision cut lung slices (PCLS) from idopathic pulmonary fibrosis (IPF) lung tissue upon exposure to Comopund 5, clinical standard of care compounds nintedanib (Nin) and pirfenidone (Pirf), and an ALK5 inhibitor, all versus DMSO control.
# PCLS from a single IPF lung tissue sample were cultured for seven days with Compound 5 at concentrations of […], 2 nM, 60 nM, 200 nM, and 1 μM, along with 0.1% DMSO control and an Alk5 inhibitor at 1 μM. […] COL1A1 expression is also graphed for the PCLS in the presence of 0.1% DMSO control, and an Alk5 inhibitor at 1 μM.
# [3] = test system: lung Col1a1 expression; test: Precision cut lung slices, chronic bleomycin, versus pirfenidone and nintedanib (Example B10); assay type: cell-based, mice; details: 7 days culture, vs DMSO vehicle, FIG. 6A
# Method: as §1, with “following” for “after”
# During the culture period, slices in the control group were treated with DMSO and slices in the test group were treated with a DMSO solution of one of compound 5; nintedanib; pirfenidone; a combination of nintedanib and compound 5; a combination of pirfenidone and compound 5; or the small molecule ALK5 inhibitor. Compound 5 was […] effective to equal or exceed its respective IC50 values at αvβ6 and αvβ1. The small molecule ALK5 inhibitor was analyzed at […] its reported IC50 value. Nintendanib and pirfenidone were analyzed at concentrations 10× their reported therapeutic concentrations.
# [4] = test system: Type I Collagen gene Col1a1 expression; test: Precision cut lung slices, mice under acute bleomycin exposure (Example B8); assay type: cell-based; details: 3 days culture, normalized to DMSO, FIG. 5A
# Method: Mice (C57BL/6) were administered 3 U/kg of bleomycin (Teva Pharmaceuticals; North Wales, Pa.) on day 0 via oropharyngeal aspiration while under anesthesia. On day 14, precision cut lung slices were obtained. Following euthanization, 2% low gelling temp agarose was injected into the mouse lungs via the trachea. […] The lobes were then subjected to precision slicing to obtain samples for culture using a microtome (Compresstome VF-300-0Z, Precisionary; Greenville, N.C.). Individual slices were distributed in a multiwell culture plate and cultured for 3 days under control (DMSO) and test compound conditions.
# [5] = treatment of IPF; cited from earlier work
# [6] = test system: Col1a1 expression; test: lung slice Col1a1 expression versus DMSO control slices; details: FIG. 6A; compared to the DMSO vehicle control slices
SMILES,lung Col1a1 expression [1],"lung Col1a1 expression ([2]; human IPF slices, 3 days, 3G9 ≥400 ng/mL, compound 5 179 nM, ALK5 inhibitor 1 μM, FIG. 6C)",lung slice Col1a1 expression [3],Type I Collagen gene Col1a1 expression [4],expression of COL1A1 (treatment alone) [2],side effects [5],therapeutic efficacy [5],lung Col1a1 expression [6]
"Cc1cccc(-c2n[nH]cc2-c2ccc(F)c(-c3cnn(CCO)c3)c2)n1 [small molecule ALK5 inhibitor, 4-[2-Fluoro-5-[3-(6-methyl-2-pyridinyl)-1H-pyrazol-4-yl]phenyl]-1H-pyrazole-1-ethanol, reference compound]",greatest decrease,decrease in lung Col1a1 expression,"substantial, statistically significant (p<0.0001 vs vehicle) decrease",greatest decrease,,,,
COC(=O)c1ccc2c(c1)NC(=O)/C2=C(\Nc1ccc(N(C)C(=O)CN2CCN(C)CC2)cc1)c1ccccc1 [nintedanib],,,slight increase,,did not significantly reduce,numerous side effects,less therapeutic efficacy than desired,slight increase
Cc1ccc(=O)n(-c2ccccc2)c1 [pirfenidone],,,slight increase,,did not significantly reduce,numerous side effects,less therapeutic efficacy than desired,slight increase

# From patent US11419869B2, “Dosage forms and regimens for amino acid compounds” (Pliant Therapeutics, Inc., priority 2019, dated 2022)
